Measured values taken from paper PMC7816853, “Overexpression of the chloroplastic 2-oxoglutarate/malate transporter disturbs carbon and nitrogen homeostasis in rice” (Journal of Experimental Botany, 2020).

Target: T1, ZmOMT1 (Zea mays, UniProt Q768R5)
T1 construct: gene ZmpOMT1; full-length CDS with C-terminal AcV5 tag kept; expressed in transgenic rice (Oryza sativa indica IR64) leaf mesophyll; total leaf membrane protein reconstituted into liposomes; calculated ~60 kDa, 40 kDa on blot
T1 sequence (Q768R5 81-578): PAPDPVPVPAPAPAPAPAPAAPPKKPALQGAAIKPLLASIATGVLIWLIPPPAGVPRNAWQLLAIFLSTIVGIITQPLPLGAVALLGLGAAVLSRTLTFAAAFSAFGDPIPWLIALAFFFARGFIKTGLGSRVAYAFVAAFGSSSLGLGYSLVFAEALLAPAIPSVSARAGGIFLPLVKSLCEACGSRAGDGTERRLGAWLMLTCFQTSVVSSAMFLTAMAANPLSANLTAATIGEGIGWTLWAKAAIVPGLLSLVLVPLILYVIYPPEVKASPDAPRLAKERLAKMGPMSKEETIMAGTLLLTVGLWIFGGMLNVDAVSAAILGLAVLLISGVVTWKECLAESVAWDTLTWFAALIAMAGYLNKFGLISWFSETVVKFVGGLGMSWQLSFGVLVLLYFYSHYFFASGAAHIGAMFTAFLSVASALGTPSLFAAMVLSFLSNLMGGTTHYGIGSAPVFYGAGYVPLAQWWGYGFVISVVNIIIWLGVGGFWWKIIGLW
Experiment: […]malate uptake into proteoliposomes, malate/malate counterexchange
Type: biochemical
Conditions: pH 7.5; 30 mM malate preloaded inside; 0.3 mM external [14C]malate; total leaf membrane protein of transgenic rice versus wild type (native rice transporters present); labelled compound

## O=C(O)C[C@H](O)C(=O)O [malate]
  [14C]malate uptake into proteoliposomes, malate/malate counterexchange: significantly higher malate–malate counterexchange activity in liposomes reconstituted with membrane proteins from overexpression lines
